Data on 9 compounds can be found in patent US20110098296A1, “Thiazole And Oxazole Kinase Inhibitors” (priority 2007, published 2011).

One assay deals with T1, EGFR (Homo sapiens, UniProt P00533).
T1 construct: made in house; host or cells: baculovirus expression system
Description: EGFR substrate phosphorylation assay (HTRF). In kind it is biochemical. The conditions noted are these: Method (A): Enzyme Mix incubated with compound at 20° C. for 1 hr, reaction started by adding Substrate Mix. A digest of the protocol: (§1)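 Baculovirus-expressed kinase (0.8 nM EGFR or 10 nM ErbB2 in enzyme mix) with Peptide C 0.8 μM and ATP 20 μM (substrate-mix levels), MOPS pH 7.5, MnCl2; 90 min, 20 °C, HTRF anti-phosphotyrosine. Method A adds 1 h enzyme–compound preincubation; B none. pIC50, final compound 0.00027–47.6 μM.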

The next assay addresses T2, ErbB2 (Homo sapiens, UniProt P04626).
T2 construct: made in house; host or cells: baculovirus expression system
Kind of assay: ErbB-2 substrate phosphorylation assay (HTRF). In kind it is biochemical. The conditions noted are these: Method (A): Enzyme Mix incubated with compound at 20° C. for 1 hr, reaction started by adding Substrate Mix. A digest of the protocol: as §1
(In general: TR-FRET usually uses a lanthanide donor and a delayed reading to cut background.)

The test system of another assay is HN5 tumor cells. Kind of assay: Method C: Cell Growth Inhibition Assay (CellTiter-Glo), HN5. It counts as cell-based. The settings on record: Homo sapiens, 72 h, 3 days, 4-parameter fit. As for the experimental part: (§2) Human breast tumor cells (BT474) were cultured in RPMI (Mediatech 50-011-PB), containing 10% FBS (JRH Biosciences 12176) and 1% penicillin-streptomycin (Invitrogen 15140). Human head and neck tumor cells (HN5) were cultured in high glucose DMEM (Mediatech 50-013-PB) containing 10% FBS and 1% penicillin-streptomycin. Human colon tumor cells (Colo205) were cultured in RPMI (Mediatech 50-020-PB) containing 10% FBS and 1% penicillin-streptomycin. Human melanoma cancer cells (SK-MEL-28) were cultured in EMEM with nonessential amino acids (Mediatech 50-011-PB) containing 10% FBS, 1% sodium pyruvate (JT Baker 3354-04), and 1% penicillin-streptomycin. Human melanoma cancer cells (A375P F11s) were cultured in RPMI (Mediatech 50-020-PB) containing 10% FBS, 1% sodium pyruvate, and 1% penicillin-streptomycin. Human colon cancer cells (HT-29) were cultured in high glucose DMEM (Mediatech 50-013-PB) containing 10% FBS and 1% penicillin-streptomycin. Human melanoma cancer cells (SK-MEL-3) were cultured in McCoy's 5A (50-025-PB) containing 15% FBS, and 1% penicillin-streptomycin. All cell lines were maintained at 37° C. in a humidified 5% CO2, 95% air incubator. Cells were harvested using trypsin/EDTA (Invitrogen 25200), counted using an haemocytometer, and plated. For 96-well assays (using white full-area NUNC plates cat. #136102), cells were plated in 105 μL at the following densities (cells/well): HN5, 500; Colo205, 500; SK-MEL-28, 500; A375P-F11s, 500; HT-29, 500; SK-MEL-3, 500; and BT474, 3000. For 384-well assays (white full-area NUNC plates, cat. #781080), cells were plated in 48 μL at the following densities (cells/well): HN5, 500; Colo205, 500; SK-MEL-28, 500; A375P-F11s, 500; HT29, 500; SK-MEL-3, 500; and BT474, 2000.
(§3) The next day, compounds were diluted as follow: For 96-well assays, 13.5 μL of compound in DMSO were diluted using nine (9) serial 1:3 dilutions of 4.5 μL in 9 μL of DMSO. Medium (270 μl/well of RPMI with 10% FBS and 1% penicillin-streptomycin) was added to the plates. Aliquots (7 μl) were added to cells in the final assay giving a final DMSO concentration of 0.2%. For 384-well assays, 15 μL of compound in DMSO were diluted using nine (9) serial 1:3 dilutions of 5 μL in 10 μL of DMSO, followed by a further dilution of 5 μL of compound with 95 μL of medium, of which 2 μL were added to cells in the final assay giving a final DMSO concentration of 0.2%. Cells were incubated at 37° C., 5% CO2 for 3 days.
(§4) Total ATP was measured (as a surrogate estimate of cell number) using CellTiter-Glo® reagent (Promega G7571). Briefly, plates were removed from the incubator and allowed to equilibrate to room temperature for 30 minutes. CellTiter-Glo® (25 μL or 55 μL for 384-well or 96-well assays, respectively) reagent was added to each well and plates were shaken on an orbital plate shaker for 2 mins. Plates were incubated without shaking for a further 30 mins and read on an LJL Analyst GT reader in luminometer mode with an integration time of 0.5 seconds per well. Percent inhibition of cell growth was calculated relative to DMSO vehicle-treated control wells. Concentration of compound required to give 50% inhibition of vehicle-treated control cell growth (IC50) was interpolated using a 4-parameter fit for determining IC50 using the following equation: Y=A+((B−A)/(1+((C/X)̂D))) where X=IC50.
(Cellular ATP, detected with luciferase, serves as a proxy for viable cell number.)

Another assay deals with BT474 tumor cells. Description: Method C: Cell Growth Inhibition Assay (CellTiter-Glo), BT474. In kind it is cell-based. The conditions noted are these: Homo sapiens, BT-474, 72 h, 3 days, 4-parameter fit.
Another assay relates to Colo205 tumor cells. Kind of assay: Method C: Cell Growth Inhibition Assay (CellTiter-Glo), Colo205. The conditions noted are these: Homo sapiens, COLO 205, 72 h, 3 days, 4-parameter fit. In kind it is cell-based. Summed up:
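Plating at 500 cells/well is followed the next day by addition of compound as a 1:3 serial dilution series. After 3 days' incubation, CellTiter-Glo luminescence is read and IC50 is calculated versus DMSO wells.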

The test system of another assay is SK-MEL-28 tumor cells. Kind of assay: Method C: Cell Growth Inhibition Assay (CellTiter-Glo), SK-MEL-28. It counts as cell-based. The settings on record: Homo sapiens, SK-MEL-28, 72 h, 3 days, 4-parameter fit. A digest of the protocol:
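Cells were seeded at 500 per well and dosed the next day with nine serial 1:3 compound dilutions (0.2% DMSO final), then grown 3 days at 37° C, 5% CO2. ATP was measured by CellTiter-Glo luminescence, and IC50 was interpolated by 4-parameter fit of percent inhibition versus DMSO controls.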

Another assay deals with A375P F11s tumor cells. Description: Method C: Cell Growth Inhibition Assay (CellTiter-Glo), A375P F11s. It counts as cell-based. The conditions noted are these: Homo sapiens, 72 h, 3 days, 4-parameter fit. How it is done: as §2, §3, §4
A further assay deals with HT-29 tumor cells. Kind of assay: Method C: Cell Growth Inhibition Assay (CellTiter-Glo), HT-29. In kind it is cell-based. The settings on record: Homo sapiens, HT-29, 72 h, 3 days, 4-parameter fit. How it is done: as §2, §3, §4
For a further assay, the system named is SK-MEL-3 tumor cells. Description: Method C: Cell Growth Inhibition Assay (CellTiter-Glo), SK-MEL-3. It counts as cell-based. The conditions noted are these: Homo sapiens, SK-MEL3, 72 h, 3 days, 4-parameter fit. As for the experimental part:
as §2, §3, §4

pIC50: −log10 of the molar value.

T2 sequence (P04626 23-1255): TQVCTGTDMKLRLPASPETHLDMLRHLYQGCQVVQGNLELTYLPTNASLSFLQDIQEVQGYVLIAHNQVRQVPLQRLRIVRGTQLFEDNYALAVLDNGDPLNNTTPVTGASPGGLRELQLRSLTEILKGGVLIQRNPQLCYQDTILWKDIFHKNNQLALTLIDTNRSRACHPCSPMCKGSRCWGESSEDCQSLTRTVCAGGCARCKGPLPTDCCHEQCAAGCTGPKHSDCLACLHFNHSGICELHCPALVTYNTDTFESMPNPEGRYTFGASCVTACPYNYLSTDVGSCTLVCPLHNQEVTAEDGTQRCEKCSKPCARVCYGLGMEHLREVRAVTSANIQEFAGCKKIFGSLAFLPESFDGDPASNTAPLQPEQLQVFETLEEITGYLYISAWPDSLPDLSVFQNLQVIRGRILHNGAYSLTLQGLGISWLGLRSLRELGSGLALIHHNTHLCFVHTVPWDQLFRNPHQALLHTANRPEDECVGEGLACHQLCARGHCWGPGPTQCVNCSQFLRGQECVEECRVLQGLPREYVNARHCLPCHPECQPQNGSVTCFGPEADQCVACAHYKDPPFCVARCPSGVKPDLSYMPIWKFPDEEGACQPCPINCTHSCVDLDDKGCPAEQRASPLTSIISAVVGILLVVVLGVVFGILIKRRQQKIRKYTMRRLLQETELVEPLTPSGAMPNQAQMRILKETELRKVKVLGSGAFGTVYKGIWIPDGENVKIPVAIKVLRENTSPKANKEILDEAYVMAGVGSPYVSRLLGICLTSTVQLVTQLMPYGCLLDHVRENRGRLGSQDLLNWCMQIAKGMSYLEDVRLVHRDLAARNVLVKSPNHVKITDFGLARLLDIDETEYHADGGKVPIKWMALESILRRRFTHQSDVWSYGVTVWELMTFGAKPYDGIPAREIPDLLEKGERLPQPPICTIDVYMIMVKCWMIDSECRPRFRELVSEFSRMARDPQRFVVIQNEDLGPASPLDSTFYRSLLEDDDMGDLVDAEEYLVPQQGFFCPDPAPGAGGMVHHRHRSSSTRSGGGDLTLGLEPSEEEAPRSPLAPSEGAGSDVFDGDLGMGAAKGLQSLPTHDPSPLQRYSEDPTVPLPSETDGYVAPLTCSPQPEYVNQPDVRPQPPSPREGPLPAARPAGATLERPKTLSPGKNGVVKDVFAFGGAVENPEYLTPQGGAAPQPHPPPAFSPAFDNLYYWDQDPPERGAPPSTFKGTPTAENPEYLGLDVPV
T1 sequence (P00533 25-1210): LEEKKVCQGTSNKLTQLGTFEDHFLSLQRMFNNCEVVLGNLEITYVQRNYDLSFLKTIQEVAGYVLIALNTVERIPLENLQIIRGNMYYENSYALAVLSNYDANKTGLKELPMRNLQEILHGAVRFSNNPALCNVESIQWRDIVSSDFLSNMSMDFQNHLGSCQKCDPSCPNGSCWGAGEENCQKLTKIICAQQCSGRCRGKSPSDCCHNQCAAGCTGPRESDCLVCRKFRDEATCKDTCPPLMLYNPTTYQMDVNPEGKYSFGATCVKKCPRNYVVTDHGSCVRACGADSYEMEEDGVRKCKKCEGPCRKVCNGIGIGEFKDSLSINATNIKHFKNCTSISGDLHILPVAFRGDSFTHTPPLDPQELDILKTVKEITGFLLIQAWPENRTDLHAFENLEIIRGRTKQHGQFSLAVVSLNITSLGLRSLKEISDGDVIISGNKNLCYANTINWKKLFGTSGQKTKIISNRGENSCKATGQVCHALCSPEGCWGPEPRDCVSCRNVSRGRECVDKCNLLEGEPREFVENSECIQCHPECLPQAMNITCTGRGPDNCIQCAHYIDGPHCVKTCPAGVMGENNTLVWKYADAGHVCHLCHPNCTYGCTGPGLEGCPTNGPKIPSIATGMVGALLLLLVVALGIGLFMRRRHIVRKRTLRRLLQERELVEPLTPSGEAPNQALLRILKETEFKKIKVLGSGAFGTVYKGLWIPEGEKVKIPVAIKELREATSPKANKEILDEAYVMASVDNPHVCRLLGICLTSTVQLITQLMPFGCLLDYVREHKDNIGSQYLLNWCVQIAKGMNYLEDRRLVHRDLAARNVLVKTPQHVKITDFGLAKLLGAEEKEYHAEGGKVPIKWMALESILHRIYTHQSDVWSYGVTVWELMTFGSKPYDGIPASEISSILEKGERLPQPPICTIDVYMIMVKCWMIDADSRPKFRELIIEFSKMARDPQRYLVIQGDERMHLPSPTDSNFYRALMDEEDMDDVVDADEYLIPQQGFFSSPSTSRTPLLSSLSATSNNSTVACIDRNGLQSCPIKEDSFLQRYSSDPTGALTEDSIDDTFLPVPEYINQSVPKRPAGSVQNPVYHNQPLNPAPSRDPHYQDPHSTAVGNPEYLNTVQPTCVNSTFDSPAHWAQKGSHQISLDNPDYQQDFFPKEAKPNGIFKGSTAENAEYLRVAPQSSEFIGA

As usually defined, the pIC50 is the IC50 on a negative log10 scale, so that one unit is a factor of ten. As for `CN(C)CCOc1ccc(Nc2nccc(-c3sc(N)nc3-c3cccc(C(=O)Nc4c(F)cccc4F)c3)n2)cc1Cl` [Example 75, 3-(2-Amino-5-{2-[(3-chloro-4-{[2-(dimethylamino)ethyl]oxy}phenyl)amino]-4-pyrimidinyl}-1,3-thiazol-4-yl)-N-(2,6-difluorophenyl)benzamide], the pIC50 on EGFR was above 7.00; on ErbB2, above 7.00; in the assay on HN5 tumor cells it was 6.00 to 7.00; in the assay with BT474 tumor cells it was above 7.00; with Colo205 tumor cells it was 6.00 to 7.00; in the assay with SK-MEL-28 tumor cells it was below 6.00. Moreover, the pIC50 with A375P F11s tumor cells, in the assay on HT-29 tumor cells and with SK-MEL-3 tumor cells was 6.00 to 7.00 each time.

Turning to `CN(C)C1Cc2ccc(Nc3nccc(-c4sc(N)nc4-c4cccc(NC(=O)c5c(F)cccc5F)c4)n3)cc2C1` (stereo not drawn) [Example 12, N-{3-[2-Amino-5-(2-{[2-(dimethylamino)-2,3-dihydro-1H-indeN-5-yl]amino}-4-pyrimidinyl)-1,3-thiazol-4-yl]phenyl}-2,6-difluorobenzamide], the pIC50 on EGFR was above 7.00; on ErbB2, above 7.00; in the assay on HN5 tumor cells, above 7.00; in the assay with BT474 tumor cells, above 7.00; in the assay with Colo205 tumor cells, 6.00 to 7.00; in the assay on SK-MEL-28 tumor cells it was below 6.00. Also, the pIC50 in the assay on A375P F11s tumor cells, in the assay with HT-29 tumor cells and in the assay on SK-MEL-3 tumor cells was 6.00 to 7.00 each time.

With `CN(C)CCOc1ccc(Nc2nccc(-c3sc(N)nc3-c3ccc(F)c(NC(=O)c4c(F)cccc4F)c3)n2)cc1Cl` [Example 67], the negative logarithm of the IC50 (pIC50) at EGFR was above 7.00; on ErbB2, above 7.00; in the assay with HN5 tumor cells it was above 7.00; with BT474 tumor cells, above 7.00; in the assay on Colo205 tumor cells, above 7.00; in the assay on SK-MEL-28 tumor cells it was 6.00 to 7.00. Besides, the pIC50 in the assay with A375P F11s tumor cells, in the assay on HT-29 tumor cells and with SK-MEL-3 tumor cells was 6.00 to 7.00 each time.

With `Cc1nc(-c2cccc(NC(=O)c3c(F)cccc3F)c2)c(-c2ccnc(Nc3ccc(OC4CCN(C)CC4)c(F)c3)n2)s1` [Example 108, 2,6-Difluoro-N-(3-{5-[2-({3-fluoro-4-[(1-methyl-4-piperidinyl)oxy]phenyl}amino)-4-pyrimidinyl]-2-methyl-1,3-thiazol-4-yl}phenyl)benzamide], the pIC50 was above 7.00 on EGFR; above 7.00 on ErbB2; 6.00 to 7.00 in the assay with HN5 tumor cells; above 7.00 in the assay on BT474 tumor cells; 6.00 to 7.00 in the assay with Colo205 tumor cells; below 6.00 in the assay with SK-MEL-28 tumor cells. The pIC50 is 6.00 to 7.00 in the assay with A375P F11s tumor cells, 6.00 to 7.00 in the assay on HT-29 tumor cells and below 6.00 with SK-MEL-3 tumor cells.

As to `CCc1nc(-c2cccc(NC(=O)c3c(F)cccc3F)c2)c(-c2ccnc(Nc3ccc(OCCN(C)C)c(Cl)c3)n2)s1` [Example 114, N-[3-(5-{2-[(3-Chloro-4-{[2-(dimethylamino)ethyl]oxy}phenyl)amino]-4-pyrimidinyl}-2-ethyl-1,3-thiazol-4-yl)phenyl]-2,6-difluorobenzamide], the pIC50 on EGFR was above 7.00; on ErbB2 it was above 7.00; in the assay on HN5 tumor cells, 6.00 to 7.00; with BT474 tumor cells, 6.00 to 7.00; with Colo205 tumor cells, 6.00 to 7.00; with SK-MEL-28 tumor cells, 6.00 to 7.00. In addition, the pIC50 in the assay on A375P F11s tumor cells was 6.00 to 7.00; in the assay on HT-29 tumor cells it was 6.00 to 7.00; in the assay with SK-MEL-3 tumor cells, below 6.00.

For `Cc1nc(-c2cccc(NC(=O)c3c(F)cccc3F)c2)c(-c2ccnc(Nc3cccc(CN4CCCC4)c3)n2)s1` [Example 104, 2,6-Difluoro-N-{3-[2-methyl-5-(2-{[3-(1-pyrrolidinylmethyl)phenyl]amino}-4-pyrimidinyl)-1,3-thiazol-4-yl]phenyl}benzamide], the pIC50 is above 7.00 on EGFR; above 7.00 on ErbB2; 6.00 to 7.00 in the assay with HN5 tumor cells; above 7.00 in the assay on BT474 tumor cells; 6.00 to 7.00 in the assay with Colo205 tumor cells; below 6.00 in the assay with SK-MEL-28 tumor cells. Besides, the pIC50 in the assay with A375P F11s tumor cells, in the assay on HT-29 tumor cells and in the assay with SK-MEL-3 tumor cells was 6.00 to 7.00 throughout.

Consider `Cc1nc(-c2cccc(NC(=O)c3cccc(C(F)(F)F)c3)c2)c(-c2ccnc(Nc3ccc4c(c3)CN(C)CC4)n2)s1` [Example 131, N-[3-(2-Methyl-5-{2-[(2-methyl-1,2,3,4-tetrahydro-7-isoquinolinyl)amino]-4-pyrimidinyl}-1,3-thiazol-4-yl)phenyl]-3-(trifluoromethyl)benzamide], for which the pIC50 at EGFR was above 7.00; at ErbB2, above 7.00; in the assay with HN5 tumor cells it was below 6.00; in the assay with BT474 tumor cells it was below 6.00; with Colo205 tumor cells, below 6.00; in the assay on SK-MEL-28 tumor cells, below 6.00. The pIC50 in the assay with A375P F11s tumor cells, in the assay on HT-29 tumor cells and in the assay with SK-MEL-3 tumor cells was below 6.00 throughout.

For the compound `CN(C)CCOc1cccc(Nc2nccc(-c3scnc3-c3cccc(NC(=O)Cc4cccs4)c3)n2)c1` [Example 84, N-[3-(5-{2-[(3-{[2-(Dimethylamino)ethyl]oxy}phenyl)amino]-4-pyrimidinyl}-1,3-thiazol-4-yl)phenyl]-2-(2-thienyl)acetamide], the pIC50 on EGFR was above 7.00; on ErbB2, above 7.00; in the assay with HN5 tumor cells, below 6.00; with BT474 tumor cells it was below 6.00; in the assay with Colo205 tumor cells, below 6.00; in the assay on SK-MEL-28 tumor cells it was below 6.00. The negative-log IC50 (pIC50) in the assay on A375P F11s tumor cells, in the assay on HT-29 tumor cells and with SK-MEL-3 tumor cells was below 6.00 throughout.

Consider `CNc1nc(-c2cccc(NC(=O)c3c(F)cccc3F)c2)c(-c2ccnc(Nc3ccc(OCCN(C)C)c(Cl)c3)n2)s1` [Example 24, N-{3-[5-{2-[(3-Chloro-4-{[2-(dimethylamino)ethyl]oxy}phenyl)amino]-4-pyrimidinyl}-2-(methylamino)-1,3-thiazol-4-yl]phenyl}-2,6-difluorobenzamide], for which the negative-log IC50 (pIC50) at EGFR is above 7.00; on ErbB2, above 7.00; with HN5 tumor cells, above 7.00; in the assay on BT474 tumor cells it was above 7.00; in the assay with Colo205 tumor cells it was 6.00 to 7.00; in the assay on SK-MEL-28 tumor cells, 6.00 to 7.00. The negative-log IC50 (pIC50) with A375P F11s tumor cells, in the assay with HT-29 tumor cells and with SK-MEL-3 tumor cells was 6.00 to 7.00 throughout.
